23 compounds from patent US8546381B2, “Bridged heterocyclic compounds and methods of use” (Medivation Technologies, Inc., priority 2008, dated 2013) can be followed below.

Molecules are shown by their SMILES.

For assay [1], the target named is T1, human recombinant histamine H2 receptor (Homo sapiens, UniProt P25021).
T1 construct: expressed in transfected cells; host or cells: CHO-K1 cells
Briefly: Histamine H2 radioligand binding ([125I]Aminopotentidine). The settings on record: compound at 1 μM; inhibition of specific [125I]Aminopotentidine binding; read-out: Histamine Binding (1 μM) H2, Percentage Inhibition. The procedure:
To evaluate in radioligand binding assays the activity of compounds of the invention, human recombinant histamine H2 receptor expressed in Chinese hamster ovary (CHO) K1 cells (Ruat, M., Proc. Natl. Acad. Sci. USA. 87(5):1658, 1990) in a 50 mM Phosphate buffer, pH 7.4 was used. Compounds of the invention were incubated with 0.1 nM [^125I]Aminopotentidine for 120 minutes at 25° C. Non-specific binding was estimated in the presence of 3 μM Tiotidine. Receptor proteins were filtered and washed, the filters were then counted to determine [^125I]Aminopotentidine specifically bound. Compounds were screened at 1 μM or lower, using 1% DMSO as vehicle. Biochemical assay results are presented as the percent inhibition of specific binding in Table 2.

Assay [2] concerns the target T2, human recombinant dopamine D2L receptor (Homo sapiens, UniProt P14416).
T2 construct: expressed in transfected cells; host or cells: CHO cells
Briefly: Dopamine D2L radioligand binding ([3H]Spiperone). To be noted: read-out: Dopamine (1 μM) D2L, inhibition of ligand binding. The procedure:
To evaluate in radioligand binding assays the activity of compounds of the invention, human recombinant dopamine D2L receptor expressed in Chinese hamster ovary (CHO) cells (Grandy, D. K. et al. Proc. Natl. Acad. Sci. USA. 86:9762, 1989; Hayes, G. et al., Mol. Endocrinol. 6:920, 1992) in a modified Tris-HCl buffer (50 mM Tris-HCl, pH 7.4, 1.4 mM Ascorbic Acid, 0.001% BSA, 150 mM NaCl) was used. Compounds of the invention were incubated with 0.16 nM [^3H]Spiperone for 120 minutes at 25° C. Non-specific binding was estimated in the presence of 10 μM Haloperidol. Receptor proteins were filtered and washed, the filters were then counted to determine [^3H]Spiperone specifically bound. Compounds were screened at 1 μM or lower, using 1% DMSO as vehicle. Biochemical assay results are presented as the percent inhibition of specific binding in Table 3.

Assay [3] addresses T3, human recombinant serotonin (5-Hydroxytryptamine) 5-HT7 receptor (Homo sapiens, UniProt P34969).
T3 construct: expressed in transfected cells; host or cells: CHO cells
As to the kind of experiment: Serotonin 5-HT7 radioligand binding ([3H]LSD). To be noted: for inhibition at 1 µM: read-out: Serotonin 5-HT7, inhibition of ligand binding (1 μM). The procedure:
To evaluate in radioligand binding assays the activity of compounds of the invention, human recombinant serotonin (5-Hydroxytryptamine) 5-HT7 receptor expressed in Chinese hamster ovary (CHO) cells (Roth, B. L. et al., J. Pharmacol. Exp. Ther. 268:1403, 1994; Shen, Y. et al., J. Biol. Chem. 268:18200, 1993) in a modified Tris-HCl buffer (50 mM Tris-HCl, pH 7.4, 10 mM MgCl2, 0.5 mM EDTA) was used. Compounds of invention were incubated with 5.5 nM [^3H] Lysergic acid diethylamide (LSD) for 2 hours at 25° C. Non-specific binding was estimated in the presence of 10 μM Serotonin (5-HT). Receptor proteins were filtered and washed, the filters were then counted to determine [^3H]LSD specifically bound. Compounds were screened at 1 μM or lower, using 1% DMSO as vehicle. Biochemical assay results are presented as the percent inhibition of specific binding in Table 4.

The subject of assay [4] is rat central imidazoline I2 receptor. Briefly: Central imidazoline I2 radioligand binding ([3H]Idazoxan). The settings on record: compound at 1 μM; inhibition of specific [3H]Idazoxan binding. The procedure: To evaluate in radioligand binding assays the activity of compounds of the invention, rat central imidazoline I2 receptor obtained from Wistar Rat cerebral cortex (Brown, C. M. et al., Br. J. Pharmacol. 99:803, 1990) in a modified Tris-HCl buffer (50 mM Tris-HCl buffer, pH 7.4, 0.5 mM EDTA) was used. Compounds of the invention were incubated with 2 nM [^3H]Idazoxan for 30 minutes at 25° C. Non-specific binding was estimated in the presence of 1 μM Idazoxan. Receptor proteins were filtered and washed, the filters were then counted to determine [^3H]Idazoxan specifically bound. Compounds were screened at 1 μM or lower, using 1% DMSO as vehicle. Compounds of the invention were tested in this biochemical assay and percent inhibition of specific binding was determined.

Assay [5] deals with T4, rat adrenergic α1B receptor (Rattus norvegicus, UniProt P15823).
T4 construct: obtained from Wistar Rat liver; from tissue; host or cells: Wistar rat liver
T4 sequence (P15823 1-515): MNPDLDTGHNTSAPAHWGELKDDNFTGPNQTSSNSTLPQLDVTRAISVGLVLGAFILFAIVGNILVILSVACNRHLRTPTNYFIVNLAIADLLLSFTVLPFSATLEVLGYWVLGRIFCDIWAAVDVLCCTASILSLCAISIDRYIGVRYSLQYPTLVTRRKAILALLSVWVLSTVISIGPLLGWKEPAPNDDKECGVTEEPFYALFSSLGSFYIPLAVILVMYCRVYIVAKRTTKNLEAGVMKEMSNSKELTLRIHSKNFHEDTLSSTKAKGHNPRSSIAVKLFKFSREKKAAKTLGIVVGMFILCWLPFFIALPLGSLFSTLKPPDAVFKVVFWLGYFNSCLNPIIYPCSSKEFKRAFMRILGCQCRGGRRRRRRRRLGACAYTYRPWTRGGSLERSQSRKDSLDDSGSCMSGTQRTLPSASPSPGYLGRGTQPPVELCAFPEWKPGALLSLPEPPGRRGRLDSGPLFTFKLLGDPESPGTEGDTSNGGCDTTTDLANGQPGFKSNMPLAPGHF
Briefly: Adrenergic α1B radioligand binding ([3H]Prozosin). The procedure:
To evaluate in radioligand binding assays the activity of compounds of the invention, rat adrenergic α1B receptor obtained from Wistar Rat liver (Garcia-S'ainz, J. A. et al., Biochem. Biophys. Res. Commun. 186:760, 1992; Michel A. D. et al., Br. J. Pharmacol. 98:883, 1989) in a modified Tris-HCl buffer (50 mM Tris-HCl buffer, pH 7.4, 0.5 mM EDTA) was used. Compounds of the invention were incubated with 0.25 nM [^3H]Prozosin for 60 minutes at 25° C. Non-specific binding was estimated in the presence of 10 μM phentolamine. Receptor proteins were filtered and washed, the filters were then counted to determine [^3H]Prozosin specifically bound. Compounds were screened at 1 μM or lower, using 1% DMSO as vehicle. Compounds of the invention were tested in this biochemical assay and percent inhibition of specific binding was determined.

T3 sequence (P34969 whole entry): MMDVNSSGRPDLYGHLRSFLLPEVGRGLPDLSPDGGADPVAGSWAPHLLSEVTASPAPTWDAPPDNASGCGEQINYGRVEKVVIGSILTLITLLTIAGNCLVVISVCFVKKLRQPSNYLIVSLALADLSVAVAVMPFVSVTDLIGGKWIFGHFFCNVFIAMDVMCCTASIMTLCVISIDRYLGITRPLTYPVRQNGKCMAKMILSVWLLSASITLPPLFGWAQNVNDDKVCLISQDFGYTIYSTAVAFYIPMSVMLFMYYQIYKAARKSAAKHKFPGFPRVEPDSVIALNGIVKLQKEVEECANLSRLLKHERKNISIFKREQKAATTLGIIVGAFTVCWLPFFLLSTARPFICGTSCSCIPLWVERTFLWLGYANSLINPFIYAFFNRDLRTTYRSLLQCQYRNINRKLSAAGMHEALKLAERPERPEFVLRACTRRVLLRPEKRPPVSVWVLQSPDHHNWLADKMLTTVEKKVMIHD
T1 sequence (P25021 whole entry): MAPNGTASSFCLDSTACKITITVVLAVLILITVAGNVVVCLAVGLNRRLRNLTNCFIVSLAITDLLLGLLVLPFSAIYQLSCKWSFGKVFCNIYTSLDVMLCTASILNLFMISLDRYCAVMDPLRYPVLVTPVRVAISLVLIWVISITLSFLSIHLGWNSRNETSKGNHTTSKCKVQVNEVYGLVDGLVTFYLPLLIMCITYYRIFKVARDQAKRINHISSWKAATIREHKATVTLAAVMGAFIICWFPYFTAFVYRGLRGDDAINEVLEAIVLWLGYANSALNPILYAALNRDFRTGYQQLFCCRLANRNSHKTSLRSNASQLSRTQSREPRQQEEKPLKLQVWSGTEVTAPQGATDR
T2 sequence (P14416 whole entry): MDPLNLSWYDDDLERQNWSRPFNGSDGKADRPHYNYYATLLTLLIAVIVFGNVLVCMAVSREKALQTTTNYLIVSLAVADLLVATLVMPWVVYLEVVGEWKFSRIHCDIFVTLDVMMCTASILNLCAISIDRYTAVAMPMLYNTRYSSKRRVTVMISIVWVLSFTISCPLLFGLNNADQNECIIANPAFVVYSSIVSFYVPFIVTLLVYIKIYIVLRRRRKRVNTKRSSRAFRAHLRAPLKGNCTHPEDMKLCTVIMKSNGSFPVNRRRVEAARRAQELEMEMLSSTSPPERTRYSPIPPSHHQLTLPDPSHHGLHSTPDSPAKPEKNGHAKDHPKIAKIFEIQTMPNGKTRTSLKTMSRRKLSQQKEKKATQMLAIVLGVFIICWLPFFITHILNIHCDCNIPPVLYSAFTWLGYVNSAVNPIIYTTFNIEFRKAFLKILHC

As a reminder, the inhibition is the relative decrease from the control value, in per cent. Regarding `C/C(=C\n1c2c(c3cc(C)ccc31)C1CCC(C2)N1C)c1ccc(Cl)cc1` (centres unmarked) [Compound 116], the figures for the inhibition at 1 µM in assay [1], in assay [2] and in assay [3] were 81%, -2% and 92%, respectively.
On to `CN1C2CCC1c1c(n(CC(=O)c3ccc(Cl)cc3)c3ccc(Cl)cc13)C2` (centres unmarked) [Compound 111], for which the figures for the inhibition at 1 µM in assay [1], in assay [2] and in assay [3] were 33%, 6% and 78%, respectively.
Consider `COc1ccc(C(C)(O)Cn2c3c(c4cc(Cl)ccc42)C2CCC(C3)N2C)cc1F` (centres unmarked) [Compound 160], for which the inhibition at 1 µM in assay [1] was 22%; in assay [2], 7%; in assay [3], 75%.
For `CN1C2CCC1c1c(n(CCC(=O)N3CCCC3)c3ccc(Cl)cc13)C2` (centres unmarked) [Compound 5], the figures for the inhibition at 1 µM in assay [1] and in assay [2] were -9% and 10%, respectively. For the same compound, the “Imidazoline I2 Central (1 μM), Percentage Inhibition” value in assay [4] is recorded as 25%.
Regarding `COc1ccc(/C(C)=C/n2c3c(c4cc(Cl)ccc42)C2CCC(C3)N2C)cc1F` (centres unmarked) [Compound 136], the inhibition at 1 µM came to 100% in assay [1], 11% in assay [2] and 79% in assay [3].
Take `Cc1ccc2c(c1)c1c(n2CCc2ccccc2)CC2CCC1N2C` (centres unmarked) [Compound 2]: the inhibition at 1 µM in assay [1] came to 43%; in assay [5] (read-out: Adrenergic α1B, inhibition of ligand binding (1 μM)), 99%; in assay [3], 98%. In addition, the inhibition at 0.03 µM in assay [5] (read-out: Adrenergic α1B, inhibition of ligand binding (0.03 μM)) is 63%; in assay [3] (read-out: Serotonin 5-HT7, inhibition of ligand binding (0.03 μM)), 81%. Moreover, the inhibition at 0.3 µM in assay [5] (read-out: Adrenergic α1B, inhibition of ligand binding (0.3 μM)) was 89%. Further, the inhibition at 0.003 µM in assay [3] (read-out: Serotonin 5-HT7, inhibition of ligand binding (3.0 nM)) is 38%. In assay [4], the “Imidazoline I2 Central (1 μM), Percentage Inhibition” value worked out at 70%.
For `CN1C2CCC1c1c(n(CCC(=O)N3CCOCC3)c3ccc(Cl)cc13)C2` (centres unmarked) [Compound 13], the inhibition at 1 µM in assay [1] is -2%; in assay [2], 13%. In addition, in assay [4], the “Imidazoline I2 Central (1 μM), Percentage Inhibition” value is given as −7%.
For `CN1C2CCC1c1c(n(C#Cc3ccc(F)cc3)c3ccc(Cl)cc13)C2` (centres unmarked) [Compound 138], the inhibition at 1 µM in assay [1] is 70%; in assay [2] it was 42%; in assay [3], 91%.
Take `CN1C2CCC1c1c(n(CC(=O)N3CCOCC3)c3ccc(Cl)cc13)C2` (centres unmarked) [Compound 59, 2-(2-chloro-11-methyl-5,6,7,8,9,10-Hexahydro-7,10-iminocyclohept[b]indol-5-yl)-1-morpholinoethanone]: the results for the inhibition at 1 µM in assay [1] and in assay [2] were 15% and 6%, respectively. In addition, in assay [4], the “Imidazoline I2 Central (1 μM), Percentage Inhibition” value is −8%.
As to `Cc1ccc2c(c1)c1c(n2C#Cc2ccc(F)cc2)CC2CCC1N2C` (centres unmarked) [Compound 141], the inhibition at 1 µM in assay [1] was 25%; in assay [2], -4%; in assay [3] it was 48%.
Consider `CN1C2CCC1c1c(n(CCc3ccc(Cl)cc3)c3ccc(F)cc13)C2` (centres unmarked) [Compound 33], for which the inhibition at 1 µM in assay [1] came to 18%; in assay [2], 17%. Further, in assay [4], the “Imidazoline I2 Central (1 μM), Percentage Inhibition” value amounted to 6%.
For `CN1C2CCC1c1c(n(CC(=O)N3CCCC3)c3ccc(Cl)cc13)C2` (centres unmarked) [Compound 60] the same measures were 3%, 0% and 1%.
Consider `C/C(=C\n1c2c(c3cc(C)ccc31)C1CCC(C2)N1C)c1ccc(F)cc1` (centres unmarked) [Compound 124], for which the values for the inhibition at 1 µM in assay [1], in assay [2] and in assay [3] were 79%, 33% and 91%, respectively.
As for `C/C(=C\n1c2c(c3cc(Cl)ccc31)C1CCC(C2)N1C)c1ccc(F)cc1` (centres unmarked) [Compound 123], the inhibition at 1 µM in assay [1] was found to be 93%; in assay [2], 80%; in assay [3], 97%.
For `Cc1ccc2c(c1)c1c(n2C(=O)Cc2ccc(Cl)cc2)CC2CCC1N2C` (centres unmarked) [Compound 162] the same measures were 47%, 2% and 43%.
For `Cc1ccc(C#Cn2c3c(c4cc(Cl)ccc42)C2CCC(C3)N2C)cn1` (centres unmarked) [Compound 139] the same measures were 34%, -4% and 97%.
For the compound `C/C(=C\n1c2c(c3cc(Cl)ccc31)C1CCC(C2)N1C)c1ccc(Cl)cc1` (centres unmarked) [Compound 125], the results for the inhibition at 1 µM in assay [1], in assay [2] and in assay [3] were 96%, 5% and 95%, respectively.
Consider `Cc1ccc2c(c1)c1c(n2CCc2ccc(F)cc2)CC2CCC1N2C` (centres unmarked) [Compound 62], for which the inhibition at 1 µM came to 52% in assay [1] and 41% in assay [2]. The “Imidazoline I2 Central (1 μM), Percentage Inhibition” value in assay [4] was 52%.
On to `C/C(=C\n1c2c(c3cc(C)ccc31)C1CCC(C2)N1C)c1ccc(Cl)cc1Cl` (centres unmarked) [Compound 163], for which the inhibition at 1 µM in assay [1] was 66%; in assay [2] it was -16%; in assay [3], 87%.
On to `COc1ccc(C(C)(O)Cn2c3c(c4cc(C)ccc42)C2CCC(C3)N2C)cc1F` (centres unmarked) [Compound 161], for which the inhibition at 1 µM in assay [1] is 20%; in assay [2], 12%; in assay [3], 69%.
For `CN1C2CCC1c1c(n(C#Cc3ccc(Cl)cc3)c3ccc(Cl)cc13)C2` (centres unmarked) [Compound 142], in that order: 71%, 0% and 57%.
Turning to `Cc1ccc(CCn2c3c(c4cc(Cl)ccc42)C2CCC(C3)N2C)cc1` (centres unmarked) [Compound 61], the inhibition at 1 µM in assay [1] was 52%; in assay [2] it was 44%. In addition, the “Imidazoline I2 Central (1 μM), Percentage Inhibition” value in assay [4] was 22%.
For `CN1C2CCC1c1c(n(CCc3ccc(F)cc3)c3ccc(F)cc13)C2` (centres unmarked) [Compound 35], in that order: 27%, 67% and 33%.
